The subject of one experiment is airway eosinophilia. As to the kind of experiment: OVA-induced airway eosinophilia mouse model. Format: in vivo, C57B1/6J mice.
For experiment [1], the system named is C57BL-6 mouse spleen cells. The experiment can be described thus: Cytokine production in vitro by mouse spleen cells (ELISA). The experiment is classed as cell-based.
Where [2] appears, read: 5 μg/ml, dissolved in Tween/PBS, PIM-2 control also in 0.02% Tween/PBS, 24 hours.
The mark [3] stands for this setting: 5 μg/ml in PBS, 24 hours, 10^6 cells per well, ELISA.

Where two headings read alike, the source gives them in different places.

As to `CCCCCCCCCCCCCCCCCC(=O)OCC(CO[C@H]1O[C@H](CO)[C@@H](O)[C@H](O)[C@@H]1O)OC(=O)CCCCCCCCCCCCCCCCC` (mixture of isomers) [Compound 17, 1,2-di-O-stearoyl-3-O-α-D-mannopyranosylglycerol], the biological activity result with airway eosinophilia (results not shown, stated in Example 2) is given as “not biologically active”.
On to `CCCCCCCCCCCCCCCCCC(=O)OC[C@H](COP(=O)(O)OCCO[C@H]1O[C@H](CO)[C@@H](O)[C@H](O)[C@@H]1O)OC(=O)CCCCCCCCCCCCCCCCC` [Compound 7, Triethylammonium 1-O-(1,2-di-O-stearoyl-sn-glycero-3-phosphoryl)-2-O-(α-D-mannopyranosyl)-1,2-ethanediol], for which, in experiment [1] (setting [2]), the “IFNγ compared with PIM-2 control” value came out at 1.26 and the “IL-12 compared with PIM-2 control” value is 1.03. Further, in experiment [1] (in words, summary of Table 4), the “induced production of IFNγ” value is “notable levels” and the “induced production of IL-12” value is on record as “notable levels”.
Regarding `CCCCCCCCCCCCCCCCCC(=O)OCC(COP(=O)(O)OC(COC1OC(CO)C(O)C(O)C1O)COC1OC(CO)C(O)C(O)C1O)OC(=O)CCCCCCCCCCCCCCCCC` [Compound 15, Triethylammonium 2-O-(1,2-O-distearoyl-sn-glycero-3-phoshoryl)-1,3-bis-O-(α-D-mannopyranosyl)glycerol], the “Mean Eosinophil Count (×10^6), least square means by test molecule type” value with airway eosinophilia (BAL 4 days after intranasal OVA challenge, intranasal treatment in 50 μl PBS, mean over dose rates 0, 0.02, 0.2, 2.0) is recorded as 0.144 ×10^6. Further, the “IFNγ compared with PIM-2 control” value in experiment [1] (setting [3]) turned out to be 0.98. The “induced production of IFNγ” value in experiment [1] (in words, summary of Table 4) is given as “levels comparable to PIM-22,6”.
`CCCCCCCCCCCCCCCCCC(=O)OC[C@H](COP(=O)([O-])OCCO[C@H]1O[C@H](CO[C@H]2O[C@H](CO)[C@@H](O)[C@H](O)[C@@H]2O)[C@@H](O)[C@H](O)[C@@H]1O)OC(=O)CCCCCCCCCCCCCCCCC.[Na+]` [Compound 28, Sodium 1-O-(1,2-di-O-stearoyl-sn-glycero-3-phosphoryl)-2-O-[6-O-(α-D-mannopyranosyl)-α-D-mannopyranosyl]-1,2-ethanediol]: in experiment [1], the “IFNγ compared with PIM-2 control” value is 0.62, the “IL-10 compared with PIM-2 control” value was found to be 0.36, the “IL-12 compared with PIM-2 control” value turned out to be 1.15 and the “induced production of IFNγ” value is “notable levels”. In experiment [1], the “induced production of IL-12” value is “notable levels”.
In the case of `CCCCCCCCCCCCCCCCCC(=O)OC[C@H](COP(=O)([O-])OCCCOC1OC(CO)C(O)C(O)C1O)OC(=O)CCCCCCCCCCCCCCCCC.[Na+]` (stereo partly shown) [Compound 31], in experiment [1] (setting [3]), the “IFNγ compared with PIM-2 control” value stood at 0.75 and the “IL-12 compared with PIM-2 control” value worked out at 1.80. In experiment [1] (in words, summary of Table 4), the “induced production of IFNγ” value is listed as “notable levels” and the “induced production of IL-12” value was “notable levels”.
For the molecule `CCCCCCCCCCCCCCCCCC(=O)OC[C@H](COP(=O)([O-])O[C@@H]1CCCC[C@H]1OC1OC(CO)C(O)C(O)C1O)OC(=O)CCCCCCCCCCCCCCCCC.[Na+]` (stereo partly drawn) [Compound 36, 1-O-(Sodium 1,2-di-O-stearoyl-sn-glycero-3-phosphoryl)-2-O-(-α-D-mannopyranosyl)-cyclohexane-1,2-diol], in experiment [1] (setting [3]), the “IFNγ compared with PIM-2 control” value is 0.05, the “IL-4 compared with PIM-2 control” value is listed as 4.29, the “IL-10 compared with PIM-2 control” value turned out to be 0.60 and the “IL-12 compared with PIM-2 control” value came out at 1.59. In addition, in experiment [1] (in words, summary of Table 4), the “induced production of IL-4” value is reported as “levels greater than PIM-22,6” and the “induced production of IL-12” value is recorded as “levels greater than PIM-22,6”.
For the molecule `CCCCCCCCCCCCCCCCCC(=O)OC[C@H](COP(=O)([O-])OC(COC1OC(CO)C(O)C(O)C1O)COC1OC(CO)C(O)C(O)C1O)OC(=O)CCCCCCCCCCCCCCCCC.[Na+]` (stereo partly drawn) [Compound 44, Sodium(1,2-di-O-stearoyl-sn-glycero-3-phoshoryl)-2-[1,3-bis-O-(α-D-galactopyranoside)]glycerol], the “IL-12 compared with PIM-2 control” value in experiment [1] (setting [3]) turned out to be 0.14. The “induced production of IL-12” value in experiment [1] (in words, summary of Table 4) is “a small amount”; in experiment [1] (in words, summary of Table 4, listed as compound 44) it was “only a low level”.
With `CCCCCCCCCCCCCCCCCCOP(=O)([O-])OC(COC1OC(CO)C(O)C(O)C1O)COC1OC(CO)C(O)C(O)C1O.[Na+]` [Compound 47, Sodium 2-O-(Octadecylphosphoryl)-1,3-bis-O-(α-D-mannopyranosyl)glycerol], in experiment [1] (setting [3]), the “IFNγ compared with PIM-2 control” value is 0.03, the “IL-4 compared with PIM-2 control” value amounted to 1.94, the “IL-10 compared with PIM-2 control” value came to 0.53 and the “IL-12 compared with PIM-2 control” value turned out to be 0.56. Further, in experiment [1] (in words, summary of Table 4), the “induced production of IL-4” value is reported as “greater levels”, the “induced production of IL-10” value is given as “induced production” and the “induced production of IL-12” value is “induced production”.
For the molecule “L-α-Phosphatidylinositol [reference compound]”, the “IFNγ compared with PIM-2 control” value in experiment [1] (setting [3]) is given as 0.39.

For the origin of these results see patent US7989602B2, “Synthetic molecules having immune activity” (The Malaghan Institute of Medical Research, priority 2003, dated 2011).
